Source: patent publication US12121521B2, “Uses of salt-inducible kinase (SIK) inhibitors for treating osteoporosis” (The General Hospital Corporation, priority 2016, dated 2024)

Columns and labels:
Experiment in all cases: ScanEDGE kinase panel (DiscoverX)
Format in all cases: binding
Settings in all cases: read-out: % of control activity at 71 nM
ADCK3 = target: T1, ADCK3 (Homo sapiens, UniProt Q8NI60)
T1 construct: T7 phage fusion (most kinases) or DNA tag for qPCR (HEK-293-made kinases); purchased DiscoverX (Fremont, CA); host or cells: E. coli BL21-derived host (T7 phage) or HEK-293
Description: (§1) ScanEDGE kinase assays paneling specificity across a panel of 96 representative kinases were performed by DiscoverX (Fremont, CA). For most assays, kinase-tagged T7 phage strains were grown in parallel in 24-well blocks in an E. coli host derived from the BL21 strain. Bacteria were grown to log phase and infected with T7 phage from frozen stock (MOI=0.4) and incubated with shaking at 32° C. until lysis (90-150 minutes). The lysates were centrifuged (6000×g) and filtered (0.2 μm) to remove cell debris. The remaining kinases were produced in HEK-293 cells and subsequently tagged with DNA for qPCR detection. […] The liganded beads were blocked with excess biotin and washing with blocking buffer (SeaBlock (Pierce), 1% BSA, 0.05% Tween 20, 1 mM DTT) to remove unbound ligand and to reduce non-specific phage binding. […] Test compounds were prepared as 40× stocks in 100% DMSO and directly diluted into the assay. All reactions were performed in polypropylene 384 well plates in a final volume of 40 μl. […] The kinase concentration in the eluates was measured by qPCR.

ARK5 = target: T2, ARK5 (Homo sapiens, UniProt O60285)
T2 construct: T7 phage fusion (most kinases) or DNA tag for qPCR (HEK-293-made kinases); purchased DiscoverX (Fremont, CA); host or cells: E. coli BL21-derived host (T7 phage) or HEK-293
T2 sequence (O60285 whole entry, the tested form may be a part): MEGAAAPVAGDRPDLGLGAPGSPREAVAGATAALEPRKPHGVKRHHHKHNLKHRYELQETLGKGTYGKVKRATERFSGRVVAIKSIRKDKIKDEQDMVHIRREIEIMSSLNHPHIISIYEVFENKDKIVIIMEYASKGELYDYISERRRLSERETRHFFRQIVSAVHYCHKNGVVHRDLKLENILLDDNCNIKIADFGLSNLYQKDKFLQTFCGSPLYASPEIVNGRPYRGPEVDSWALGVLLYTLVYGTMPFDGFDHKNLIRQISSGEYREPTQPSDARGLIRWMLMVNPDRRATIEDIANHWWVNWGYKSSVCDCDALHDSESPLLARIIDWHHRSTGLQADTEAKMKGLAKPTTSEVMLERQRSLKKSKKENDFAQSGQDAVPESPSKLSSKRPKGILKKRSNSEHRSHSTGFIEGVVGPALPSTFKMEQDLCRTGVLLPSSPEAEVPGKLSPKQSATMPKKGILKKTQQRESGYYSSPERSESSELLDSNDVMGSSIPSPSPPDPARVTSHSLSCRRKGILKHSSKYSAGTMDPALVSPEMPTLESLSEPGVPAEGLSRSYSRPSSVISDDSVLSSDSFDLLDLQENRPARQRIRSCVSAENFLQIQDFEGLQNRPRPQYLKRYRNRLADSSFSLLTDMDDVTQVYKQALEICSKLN
Description: as §1

AURKA = target: T3, AURKA (Homo sapiens, UniProt O14965)
T3 construct: T7 phage fusion (most kinases) or DNA tag for qPCR (HEK-293-made kinases); purchased DiscoverX (Fremont, CA); host or cells: E. coli BL21-derived host (T7 phage) or HEK-293
T3 sequence (O14965 whole entry, the tested form may be a part): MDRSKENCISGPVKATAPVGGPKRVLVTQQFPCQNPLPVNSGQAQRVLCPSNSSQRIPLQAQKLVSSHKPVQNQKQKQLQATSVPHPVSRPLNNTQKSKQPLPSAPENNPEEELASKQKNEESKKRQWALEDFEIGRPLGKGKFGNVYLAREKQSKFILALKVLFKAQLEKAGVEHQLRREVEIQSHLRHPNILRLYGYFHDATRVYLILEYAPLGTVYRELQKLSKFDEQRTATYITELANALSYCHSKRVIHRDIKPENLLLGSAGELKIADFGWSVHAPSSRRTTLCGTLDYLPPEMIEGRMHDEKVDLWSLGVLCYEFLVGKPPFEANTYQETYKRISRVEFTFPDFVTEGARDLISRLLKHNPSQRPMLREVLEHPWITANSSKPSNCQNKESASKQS
Description: as §1

BTK = target: T4, BTK (Homo sapiens, UniProt Q06187)
T4 construct: T7 phage fusion (most kinases) or DNA tag for qPCR (HEK-293-made kinases); purchased DiscoverX (Fremont, CA); host or cells: E. coli BL21-derived host (T7 phage) or HEK-293
T4 sequence (Q06187 whole entry, the tested form may be a part): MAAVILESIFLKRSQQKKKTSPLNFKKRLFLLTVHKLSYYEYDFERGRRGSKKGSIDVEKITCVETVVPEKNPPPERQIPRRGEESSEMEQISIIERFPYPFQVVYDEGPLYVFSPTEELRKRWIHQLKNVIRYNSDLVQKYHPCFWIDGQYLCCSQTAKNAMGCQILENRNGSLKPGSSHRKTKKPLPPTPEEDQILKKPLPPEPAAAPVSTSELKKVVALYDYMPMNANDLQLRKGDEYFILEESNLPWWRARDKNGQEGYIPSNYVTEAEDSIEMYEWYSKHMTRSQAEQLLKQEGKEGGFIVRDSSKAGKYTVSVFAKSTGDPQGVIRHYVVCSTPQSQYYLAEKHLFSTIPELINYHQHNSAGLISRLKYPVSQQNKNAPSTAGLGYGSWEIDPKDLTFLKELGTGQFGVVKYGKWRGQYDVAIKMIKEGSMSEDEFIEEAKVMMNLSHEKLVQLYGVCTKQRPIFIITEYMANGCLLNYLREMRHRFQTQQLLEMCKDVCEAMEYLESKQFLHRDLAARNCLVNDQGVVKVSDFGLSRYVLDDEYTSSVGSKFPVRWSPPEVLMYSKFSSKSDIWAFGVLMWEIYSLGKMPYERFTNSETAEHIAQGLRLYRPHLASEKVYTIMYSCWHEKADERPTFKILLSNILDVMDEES
Description: as §1

CDK11 = target: T5, CDK11 (Homo sapiens, UniProt Q9BWU1)
T5 construct: T7 phage fusion (most kinases) or DNA tag for qPCR (HEK-293-made kinases); purchased DiscoverX (Fremont, CA); host or cells: E. coli BL21-derived host (T7 phage) or HEK-293
T5 sequence (Q9BWU1 whole entry, the tested form may be a part): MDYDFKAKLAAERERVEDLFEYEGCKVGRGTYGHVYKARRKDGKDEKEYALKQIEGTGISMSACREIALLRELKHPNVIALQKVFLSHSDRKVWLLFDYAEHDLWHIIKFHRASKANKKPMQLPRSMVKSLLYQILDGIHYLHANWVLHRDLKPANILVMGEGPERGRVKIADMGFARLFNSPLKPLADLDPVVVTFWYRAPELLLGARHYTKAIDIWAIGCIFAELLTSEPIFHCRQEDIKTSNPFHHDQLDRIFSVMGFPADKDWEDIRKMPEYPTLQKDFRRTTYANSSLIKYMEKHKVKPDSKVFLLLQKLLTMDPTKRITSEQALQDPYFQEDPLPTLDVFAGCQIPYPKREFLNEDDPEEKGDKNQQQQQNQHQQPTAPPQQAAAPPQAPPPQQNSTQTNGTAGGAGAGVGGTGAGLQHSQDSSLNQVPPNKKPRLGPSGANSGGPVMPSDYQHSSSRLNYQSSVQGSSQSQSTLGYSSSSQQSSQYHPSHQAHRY
Description: as §1

CDK3 = target: T6, CDK3 (Homo sapiens, UniProt Q00526)
T6 construct: T7 phage fusion (most kinases) or DNA tag for qPCR (HEK-293-made kinases); purchased DiscoverX (Fremont, CA); host or cells: E. coli BL21-derived host (T7 phage) or HEK-293
Description: as §1

CSF1R = target: T7, CSF1R (Homo sapiens, UniProt P07333)
T7 construct: T7 phage fusion (most kinases) or DNA tag for qPCR (HEK-293-made kinases); purchased DiscoverX (Fremont, CA); host or cells: E. coli BL21-derived host (T7 phage) or HEK-293
Description: as §1

CSNK1G2 = target: T8, CSNK1G2 (Homo sapiens, UniProt P78368)
T8 construct: T7 phage fusion (most kinases) or DNA tag for qPCR (HEK-293-made kinases); purchased DiscoverX (Fremont, CA); host or cells: E. coli BL21-derived host (T7 phage) or HEK-293
T8 sequence (P78368 whole entry, the tested form may be a part): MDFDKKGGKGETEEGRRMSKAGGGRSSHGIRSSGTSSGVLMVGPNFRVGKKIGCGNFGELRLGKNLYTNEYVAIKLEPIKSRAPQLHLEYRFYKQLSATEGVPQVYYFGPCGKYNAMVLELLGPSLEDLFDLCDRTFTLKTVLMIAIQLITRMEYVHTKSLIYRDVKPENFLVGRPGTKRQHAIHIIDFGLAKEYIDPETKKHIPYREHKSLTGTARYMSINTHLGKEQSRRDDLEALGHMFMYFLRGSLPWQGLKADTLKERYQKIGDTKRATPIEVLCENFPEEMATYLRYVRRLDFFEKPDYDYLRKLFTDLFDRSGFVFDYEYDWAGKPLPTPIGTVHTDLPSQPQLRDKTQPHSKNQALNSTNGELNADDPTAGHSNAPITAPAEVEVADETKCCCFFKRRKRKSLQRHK
Description: as §1

EPHA2 = target: T9, EPHA2 (Homo sapiens, UniProt P29317)
T9 construct: T7 phage fusion (most kinases) or DNA tag for qPCR (HEK-293-made kinases); purchased DiscoverX; host or cells: E. coli BL21-derived host (T7 phage) or HEK-293
Description: as §1

ERBB2 = target: T10, ERBB2 (Homo sapiens, UniProt P04626)
T10 construct: T7 phage fusion (most kinases) or DNA tag for qPCR (HEK-293-made kinases); purchased DiscoverX; host or cells: E. coli BL21-derived host (T7 phage) or HEK-293
Description: as §1

FGFR2 = target: T11, FGFR2 (Homo sapiens, UniProt P21802)
T11 construct: T7 phage fusion (most kinases) or DNA tag for qPCR (HEK-293-made kinases); purchased DiscoverX; host or cells: E. coli BL21-derived host (T7 phage) or HEK-293
Description: as §1

FGFR3 = target: T12, FGFR3 (Homo sapiens, UniProt P22607)
T12 construct: T7 phage fusion (most kinases) or DNA tag for qPCR (HEK-293-made kinases); purchased DiscoverX; host or cells: E. coli BL21-derived host (T7 phage) or HEK-293
Description: as §1

INSR = target: T13, INSR (Homo sapiens, UniProt P06213)
T13 construct: T7 phage fusion (most kinases) or DNA tag for qPCR (HEK-293-made kinases); purchased DiscoverX; host or cells: E. coli BL21-derived host (T7 phage) or HEK-293
Description: as §1

JNK1 = target: T14, JNK1 (Homo sapiens, UniProt P45983)
T14 construct: T7 phage fusion (most kinases) or DNA tag for qPCR (HEK-293-made kinases); purchased DiscoverX; host or cells: E. coli BL21-derived host (T7 phage) or HEK-293
Description: as §1

KIT = target: T15, KIT (Homo sapiens, UniProt P10721)
T15 construct: T7 phage fusion (most kinases) or DNA tag for qPCR (HEK-293-made kinases); purchased DiscoverX; host or cells: E. coli BL21-derived host (T7 phage) or HEK-293
Description: as §1

MEK2 = target: T16, MEK2 (Homo sapiens, UniProt P36507)
T16 construct: T7 phage fusion (most kinases) or DNA tag for qPCR (kinases made in HEK-293); purchased DiscoverX; host or cells: E. coli BL21-derived host (T7 phage) or HEK-293
T16 sequence (P36507 whole entry, the tested form may be a part): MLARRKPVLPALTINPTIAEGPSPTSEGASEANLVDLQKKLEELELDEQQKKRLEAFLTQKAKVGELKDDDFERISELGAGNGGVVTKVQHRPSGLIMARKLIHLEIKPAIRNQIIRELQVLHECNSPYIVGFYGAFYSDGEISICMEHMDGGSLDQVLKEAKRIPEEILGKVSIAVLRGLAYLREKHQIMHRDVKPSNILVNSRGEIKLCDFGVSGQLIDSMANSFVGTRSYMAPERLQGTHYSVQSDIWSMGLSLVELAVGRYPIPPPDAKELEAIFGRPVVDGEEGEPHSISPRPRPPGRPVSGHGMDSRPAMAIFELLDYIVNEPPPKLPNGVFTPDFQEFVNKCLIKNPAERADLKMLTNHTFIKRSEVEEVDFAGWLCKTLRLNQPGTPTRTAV
Description: as §1

MELK = target: T17, MELK (Homo sapiens, UniProt Q14680)
T17 construct: T7 phage fusion (most kinases) or DNA tag for qPCR (kinases made in HEK-293); purchased DiscoverX; host or cells: E. coli BL21-derived host (T7 phage) or HEK-293
Description: as §1

PAK1 = target: T18, PAK1 (Homo sapiens, UniProt Q13153)
T18 construct: T7 phage fusion (most kinases) or DNA tag for qPCR (kinases made in HEK-293); purchased DiscoverX; host or cells: E. coli BL21-derived host (T7 phage) or HEK-293
Description: as §1

PIK3CG = target: T19, PIK3CG (Homo sapiens, UniProt P48736)
T19 construct: T7 phage fusion (most kinases) or DNA tag for qPCR (kinases made in HEK-293); purchased DiscoverX; host or cells: E. coli BL21-derived host (T7 phage) or HEK-293
Description: as §1

PIM2 = target: T20, PIM2 (Homo sapiens, UniProt Q9P1W9)
T20 construct: T7 phage fusion (most kinases) or DNA tag for qPCR (kinases made in HEK-293); purchased DiscoverX; host or cells: E. coli BL21-derived host (T7 phage) or HEK-293
Description: as §1

PLK1 = target: T21, PLK1 (Homo sapiens, UniProt P53350)
T21 construct: T7 phage fusion (most kinases) or DNA tag for qPCR (kinases made in HEK-293); purchased DiscoverX; host or cells: E. coli BL21-derived host (T7 phage) or HEK-293
Description: as §1

RAF1 = target: T22, RAF1 (Homo sapiens, UniProt P04049)
T22 construct: T7 phage fusion (most kinases) or DNA tag after HEK-293 expression; purchased DiscoverX (Fremont, CA), ScanEDGE; host or cells: T7 phage in E. coli BL21-derived host, or HEK-293
Description: as §1

RIOK2 = target: T23, RIOK2 (Homo sapiens, UniProt Q9BVS4)
T23 construct: T7 phage fusion (most kinases) or DNA tag after HEK-293 expression; purchased DiscoverX (Fremont, CA), ScanEDGE; host or cells: T7 phage in E. coli BL21-derived host, or HEK-293
Description: as §1

RIPK2 = target: T24, RIPK2 (Homo sapiens, UniProt O43353)
T24 construct: T7 phage fusion (most kinases) or DNA tag after HEK-293 expression; purchased DiscoverX (Fremont, CA), ScanEDGE; host or cells: T7 phage in E. coli BL21-derived host, or HEK-293
T24 sequence (O43353 whole entry, the tested form may be a part): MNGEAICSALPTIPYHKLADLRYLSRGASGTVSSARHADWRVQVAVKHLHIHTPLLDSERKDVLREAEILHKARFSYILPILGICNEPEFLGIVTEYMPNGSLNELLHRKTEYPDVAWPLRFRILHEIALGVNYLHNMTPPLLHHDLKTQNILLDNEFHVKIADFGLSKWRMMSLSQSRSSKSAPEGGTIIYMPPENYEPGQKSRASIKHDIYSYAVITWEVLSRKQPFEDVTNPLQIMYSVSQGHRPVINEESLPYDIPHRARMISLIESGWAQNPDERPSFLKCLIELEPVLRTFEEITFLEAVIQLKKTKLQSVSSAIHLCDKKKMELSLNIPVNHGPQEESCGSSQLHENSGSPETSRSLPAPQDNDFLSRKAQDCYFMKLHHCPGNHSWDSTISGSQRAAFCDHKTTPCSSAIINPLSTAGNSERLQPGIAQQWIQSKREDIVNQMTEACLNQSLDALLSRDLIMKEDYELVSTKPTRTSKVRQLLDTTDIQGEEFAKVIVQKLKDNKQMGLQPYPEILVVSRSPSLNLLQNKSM
Description: as §1

RSK2 = target: T25, RSK2 (Homo sapiens, UniProt P51812)
T25 construct: T7 phage fusion (most kinases) or DNA tag after HEK-293 expression; purchased DiscoverX (Fremont, CA), ScanEDGE; host or cells: T7 phage in E. coli BL21-derived host, or HEK-293
T25 sequence (P51812 39-397 limits assumed): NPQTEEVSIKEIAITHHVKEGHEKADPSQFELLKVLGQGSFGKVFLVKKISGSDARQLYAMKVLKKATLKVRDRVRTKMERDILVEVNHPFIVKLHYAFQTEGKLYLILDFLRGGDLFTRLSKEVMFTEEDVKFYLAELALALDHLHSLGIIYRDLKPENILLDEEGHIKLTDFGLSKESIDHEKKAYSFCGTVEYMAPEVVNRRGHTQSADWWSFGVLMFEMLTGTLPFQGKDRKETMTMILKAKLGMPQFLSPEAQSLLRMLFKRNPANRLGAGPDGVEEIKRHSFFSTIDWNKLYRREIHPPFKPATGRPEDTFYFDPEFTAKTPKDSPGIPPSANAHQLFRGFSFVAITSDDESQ
Description: as §1

SRC = target: T26, SRC (Homo sapiens, UniProt P12931)
T26 construct: T7 phage fusion (most kinases) or DNA tag after HEK-293 expression; purchased DiscoverX (Fremont, CA), ScanEDGE; host or cells: T7 phage in E. coli BL21-derived host, or HEK-293
Description: as §1

SRPK3 = target: T27, SRPK3 (Homo sapiens, UniProt Q9UPE1)
T27 construct: T7 phage fusion (most kinases) or DNA tag after HEK-293 expression; purchased DiscoverX (Fremont, CA), ScanEDGE; host or cells: T7 phage in E. coli BL21-derived host, or HEK-293
T27 sequence (Q9UPE1 whole entry, the tested form may be a part): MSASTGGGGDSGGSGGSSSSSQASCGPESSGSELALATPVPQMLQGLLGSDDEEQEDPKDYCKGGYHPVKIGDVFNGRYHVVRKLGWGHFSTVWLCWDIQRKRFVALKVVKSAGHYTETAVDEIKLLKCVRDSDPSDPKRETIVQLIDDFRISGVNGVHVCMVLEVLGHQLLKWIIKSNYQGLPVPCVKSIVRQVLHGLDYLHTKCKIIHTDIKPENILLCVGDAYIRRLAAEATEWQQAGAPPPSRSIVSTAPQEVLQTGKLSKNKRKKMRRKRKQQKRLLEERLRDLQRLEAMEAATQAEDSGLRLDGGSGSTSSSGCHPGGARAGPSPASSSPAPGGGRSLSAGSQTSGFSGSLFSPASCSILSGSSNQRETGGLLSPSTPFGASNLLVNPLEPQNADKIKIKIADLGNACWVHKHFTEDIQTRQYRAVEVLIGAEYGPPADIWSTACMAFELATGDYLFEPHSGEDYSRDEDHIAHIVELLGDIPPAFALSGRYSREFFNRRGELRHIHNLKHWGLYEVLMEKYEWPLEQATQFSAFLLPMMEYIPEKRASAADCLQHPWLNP
Description: as §1

TGFBR1 = target: T28, TGFBR1 (Homo sapiens, UniProt P36897)
T28 construct: T7 phage fusion (most kinases) or DNA tag after HEK-293 expression; purchased DiscoverX (Fremont, CA), ScanEDGE; host or cells: T7 phage in E. coli BL21-derived host, or HEK-293
Description: as §1

TIE2 = target: T29, TIE2 (Homo sapiens, UniProt Q02763)
T29 construct: T7 phage fusion (most kinases) or DNA tag after HEK-293 expression; purchased DiscoverX (Fremont, CA), ScanEDGE; host or cells: T7 phage in E. coli BL21-derived host, or HEK-293
Description: as §1

TSSK1B = target: T30, TSSK1B (Homo sapiens, UniProt Q9BXA7)
T30 construct: T7 phage fusion (most kinases) or DNA tag after HEK-293 expression; purchased DiscoverX (Fremont, CA), ScanEDGE; host or cells: T7 phage in E. coli BL21-derived host, or HEK-293
Description: as §1

TYK2 = target: T31, TYK2 (Homo sapiens, UniProt P29597)
T31 construct: T7 phage fusion (most kinases) or DNA tag after HEK-293 expression; purchased DiscoverX (Fremont, CA), ScanEDGE; host or cells: T7 phage in E. coli BL21-derived host, or HEK-293
Description: as §1

VEGFR2 = target: T32, VEGFR2 (Homo sapiens, UniProt P35968)
T32 construct: T7 phage fusion (most kinases) or DNA tag after HEK-293 expression; purchased DiscoverX (Fremont, CA), ScanEDGE; host or cells: T7 phage in E. coli BL21-derived host, or HEK-293
Description: as §1

YANK3 = target: T33, YANK3 (Homo sapiens, UniProt Q86UX6)
T33 construct: T7 phage fusion (most kinases) or DNA tag after HEK-293 expression; purchased DiscoverX (Fremont, CA), ScanEDGE; host or cells: T7 phage in E. coli BL21-derived host, or HEK-293
T33 sequence (Q86UX6 whole entry, the tested form may be a part): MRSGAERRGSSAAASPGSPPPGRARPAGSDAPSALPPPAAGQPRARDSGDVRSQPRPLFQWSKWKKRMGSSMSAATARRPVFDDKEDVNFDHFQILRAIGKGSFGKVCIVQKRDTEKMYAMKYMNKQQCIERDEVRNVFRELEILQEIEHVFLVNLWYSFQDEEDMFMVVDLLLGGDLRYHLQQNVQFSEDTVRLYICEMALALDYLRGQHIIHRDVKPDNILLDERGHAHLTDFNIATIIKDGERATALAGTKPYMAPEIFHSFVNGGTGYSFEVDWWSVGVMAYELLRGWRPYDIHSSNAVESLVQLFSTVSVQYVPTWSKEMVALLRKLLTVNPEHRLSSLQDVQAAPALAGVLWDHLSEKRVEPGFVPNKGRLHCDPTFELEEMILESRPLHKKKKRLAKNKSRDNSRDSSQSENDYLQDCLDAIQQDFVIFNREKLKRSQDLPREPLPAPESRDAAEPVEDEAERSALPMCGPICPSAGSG
Description: as §1

COc1ccc(N2C(=O)N(c3c(C)cccc3C)Cc3cnc(Nc4ccc(C5CCN(C)CC5)c(OC)c4)nc32)c(OC)c1 [YKL-05-093]
remaining binding at 0.071 µM (ADCK3): 93%
remaining binding at 0.071 µM (ARK5): 77%
remaining binding at 0.071 µM (AURKA): 12%
remaining binding at 0.071 µM (BTK): 0.45%
remaining binding at 0.071 µM (CDK11): 88%
remaining binding at 0.071 µM (CDK3): 80%
remaining binding at 0.071 µM (CSF1R): 0.85%
remaining binding at 0.071 µM (CSNK1G2): 100%
remaining binding at 0.071 µM (EPHA2): 7.1%
remaining binding at 0.071 µM (ERBB2): 3.5%
remaining binding at 0.071 µM (FGFR2): 8.9%
remaining binding at 0.071 µM (FGFR3): 24%
remaining binding at 0.071 µM (INSR): 56%
remaining binding at 0.071 µM (JNK1): 97%
remaining binding at 0.071 µM (KIT): 1.8%
remaining binding at 0.071 µM (MEK2): 12%
remaining binding at 0.071 µM (MELK): 36%
remaining binding at 0.071 µM (PAK1): 6.6%
remaining binding at 0.071 µM (PIK3CG): 80%
remaining binding at 0.071 µM (PIM2): 97%
remaining binding at 0.071 µM (PLK1): 100%
remaining binding at 0.071 µM (RAF1): 100%
remaining binding at 0.071 µM (RIOK2): 77%
remaining binding at 0.071 µM (RIPK2): 16%
remaining binding at 0.071 µM (RSK2): 51%
remaining binding at 0.071 µM (SRC): 0%
remaining binding at 0.071 µM (SRPK3): 88%
remaining binding at 0.071 µM (TGFBR1): 90%
remaining binding at 0.071 µM (TIE2): 32%
remaining binding at 0.071 µM (TSSK1B): 83%
remaining binding at 0.071 µM (TYK2): 49%
remaining binding at 0.071 µM (VEGFR2): 26%
remaining binding at 0.071 µM (YANK3): 95%
